Results taken from US20050260126A1 (priority 2002, published 2005).
pIC50: −log10 of the molar value. Structures can show the parent of a compound that is named as a salt.

What was measured:
[1] = tested on: ScN2a cells; details: for Concentration of inhibiting cell proliferation TC: mouse
[2] = tested on: abnormal prion proteins (kuru plaques) in brain sections of GSS patients; design: species or system human; details: GSS patient brain sections, 10-200 μM in 50% ethanol, 30 minutes
[3] = Slc:ICR, mouse, not told, iv
[4] = tested on: abnormal prion proteins in ScN2a cells with persistent infection of scrapie; test: cells; format: cell-based, mouse; details: for pIC50: Mus musculus, ScN2a, 96 h, read-out: Inhibitory effects on producing abnormal prion protein IC50; for Inhibitory effects on producing abnormal prion proteins (in words): ScN2a cells
[5] = in vivo; details: male, Crj:CD1, mouse, iv

Structure (SMILES) | Concentration of inhibiting cell proliferation TC [1] | Detection of spotted depositions of abnormal prion proteins (fluorescent signals) [2] | Permeability into the brain: content in Brain [3] | Permeability into the brain: content in Plasma [3] | pIC50 [4] | MTD [5] | Inhibitory effects on producing abnormal prion proteins (in words) [4] | TC and safety concentration margin (in words) [1]
CCN(CC)c1ccc(-c2ccc3ccccc3n2)cc1 [Compound N-313, 2-[(4-diethylamino)-phenyl]quinoline] | 50 µM | spotted fluorescent signals were observed | 4.6 % ID/g or ml | 1.1 % ID/g or ml | 6.30 |  |  | 
CNc1ccc(/C=C/c2nc3ccc(OCCF)cc3o2)cc1 [BF-168, 6-(2-fluoroethoxy)-2-[2-(4-methylamino-phenyl)ethenyl]-benzoxazole] | 10 µM | spotted fluorescent signals were observed |  |  | 9.00 | ≥ 10 mg/kg | highly inhibitory effects | 
CN(C)c1ccc(/C=C/c2nc3cc(F)ccc3o2)cc1 [BF-133, 2-(4-dimethylamino) styryl-5-fluoro-benzoxazole] | 50 µM | spotted fluorescent signals were observed | 5.5 % ID/g or ml | 1.3 % ID/g or ml | 8.30 |  |  | 
CN(C)c1ccc(-c2ccc3ccccc3n2)cc1 [Compound N-310, 2-[(4-dimethylamino)-phenyl]quinoline] | 50 µM | spotted fluorescent signals were observed | 15 % ID/g or ml | 1.0 % ID/g or ml | 8.30 |  |  | 
Cc1ccc2sc(/C=C/c3ccc(Cl)cc3)nc2c1 [Compound N-441, 2-[2-(4-chlorophenyl)ethenyl]-5-methyl-benzothiazole] | 100 µM | spotted fluorescent signals were observed | 5.6 % ID/g or ml | 2.7 % ID/g or ml | 9.00 | ≥ 10 mg/kg | highly inhibitory effects | higher TCs, therefore higher safety concentration margins
CNc1ccc(/C=C/c2nc3ccc(O)cc3o2)cc1 [BF-165, 2-(4-methylamino)-styl-6-hydroxy-benzoazole] | 100 µM | spotted fluorescent signals were observed | 7.2 % ID/g or ml | 1.9 % ID/g or ml | 8.00 | ≥ 10 mg/kg |  | 
COc1cc(/C=C/c2nc3ccccc3s2)cc(OC)c1 [Compound N-408, 2-[2-(3,5-dimethoxy-phenyl)ethenyl]-benzothiazole] | 100 µM | spotted fluorescent signals were observed |  |  | 8.00 |  |  | 
CNc1ccc(/C=C/c2nc3ccccc3o2)cc1 [BF-169, 2-(4-methylamino)-styrylbenzoxazole] | 100 µM | spotted fluorescent signals were observed |  |  | 8.00 | ≥ 10 mg/kg |  | 
Nc1ccc(/C=C/c2nc3ccccc3[nH]2)cc1 [Compound N-398, 4-[2-(2-benzimidazolyl)-ethenyl]benzenamine sulfate] | 50 µM | spotted fluorescent signals were observed |  |  | 8.30 |  |  | 
CCN(CC)c1ccc(/C=C/c2nc3cc(F)ccc3[nH]2)cc1 [BF-166, 2-(4-diethylamino)-styryl-5-fluoro-benzimidazole] | 10 µM | spotted fluorescent signals were observed |  |  | 8.00 | < 10 mg/kg |  | 
CN(C)c1ccc(/C=C/c2nc3ccc(F)cc3o2)cc1 [BF-148, 2-(4-dimethylamino) styryl-6-fluoro-benzoazole] | 10 µM | spotted fluorescent signals were observed |  |  | 9.00 |  | highly inhibitory effects | 
CN(C)c1ccc(/C=C/c2nc3cc4c(cc3s2)OCO4)cc1 [Compound N-277, 4-[2-(5,6-methylene-dioxy-benzothiazol-2-yl)ethenyl]-N,N-di-methylbenzenamin] | 50 µM | detection of spotted depositions of abnormal prion proteins |  |  | 7.30 |  |  | 
Nc1ccc(C(=O)Nc2ccc(-c3nc4ccc(NC(=O)c5ccc(N)cc5)c(Cl)c4[nH]3)cc2)cc1 [Compound N-227, 4-[6-(N′-(4-amino-benzoyl)amino)-7-chlorobenzimidazol-2-yl]-N-(4-aminobenzoyl)aniline] | 10 µM | spotted fluorescent signals were observed |  |  | 8.00 |  |  | 
CN(C)c1ccc(/C=C/c2nc3ccccc3o2)cc1 [Compound N-282, 2-(4-dimethylamino) styrylbenzoxazole] | 50 µM | spotted fluorescent signals were observed | 4.0 % ID/g or ml | 0.7 % ID/g or ml | 7.30 |  |  | 
CN(C)c1ccc2cc(-c3nc4cc(F)ccc4s3)ccc2c1 [BF-154, 5-fluoro-2-(6-dimethyl-aminonaphthalen-2-yl)benzothiazole] |  | spotted fluorescent signals were observed | 1.1 % ID/g or ml | 1.4 % ID/g or ml |  |  |  | 
Cc1ccc2sc(/C=C/c3ccccc3C)nc2c1 [Compound N-440, 2-[2-(2-methylphenyl)-ethenyl]-5-methyl-benzothiazole] | 100 µM | spotted fluorescent signals were observed |  |  | 7.00 |  |  | 
CCN(CC)c1ccc(/C=C/c2cn3cc(F)ccc3n2)cc1 [BF-136, 2-[2-(4-diethylaminophenyl)ethenyl]-6-fluoroimidazo[1,2-a]-pyridine] | 10 µM | spotted fluorescent signals were observed |  |  | 9.00 |  | highly inhibitory effects | 
CN(C)c1ccc(/C=C/c2ccco2)cc1 [BF-142, 2-[2-(4-dimethylamino-phenyl)ethenyl]furan] | 100 µM | spotted fluorescent signals were observed |  |  | 8.00 |  |  | 
CN(C)c1ccc(/C=C/c2nc3ccccc3s2)cc1 [Compound N-276, 4-[2-(2-benzothiazolyl)-ethenyl]-N,N-dimethyl-benzenamine] | 50 µM | spotted fluorescent signals were observed |  |  | 8.30 |  |  | 
